The values that follow come from PMC117120 (BMC Biochemistry, 2002).

Structures are written as SMILES. Substitutions are numbered along the chain they refer to. Values joined by “and” are separate entries in the source; they are usually repeats but may differ in a detail not shown here. Equal entries are not always repeated.

For one test, the target named is T1, wildtype mouse 5-HT3ASR (Mus musculus, UniProt P23979).
T1 sequence (P23979 24-483 isoform P23979-2 limits assumed): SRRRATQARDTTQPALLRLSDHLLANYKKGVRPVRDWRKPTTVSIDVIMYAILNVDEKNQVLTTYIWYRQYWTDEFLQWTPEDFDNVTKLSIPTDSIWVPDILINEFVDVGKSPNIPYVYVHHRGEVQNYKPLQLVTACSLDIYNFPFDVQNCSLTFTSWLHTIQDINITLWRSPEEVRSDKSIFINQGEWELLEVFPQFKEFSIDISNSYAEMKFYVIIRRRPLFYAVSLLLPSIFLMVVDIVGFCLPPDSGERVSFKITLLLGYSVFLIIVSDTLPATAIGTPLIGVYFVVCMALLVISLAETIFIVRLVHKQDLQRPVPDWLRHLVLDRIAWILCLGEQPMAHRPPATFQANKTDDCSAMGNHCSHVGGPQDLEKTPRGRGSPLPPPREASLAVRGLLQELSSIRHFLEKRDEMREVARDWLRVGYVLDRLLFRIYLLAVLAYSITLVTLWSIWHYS
Nature of the test: [^3H]granisetron saturation binding, wildtype receptor.

Test [1] concerns the target T2, Q150A mutant mouse 5-HT3ASR (Mus musculus, UniProt P23979, Q151A).
T2 sequence (P23979 24-483 isoform P23979-2 Q151A): T1 sequence (P23979 24-483 isoform P23979-2 limits assumed) with Q128A
Kind of test: [^3H]granisetron saturation binding, Q150A receptor. The following applies: ± SE.

Test [2] has as its target T3, V149A mutant mouse 5-HT3ASR (Mus musculus, UniProt P23979, V150A).
T3 sequence (P23979 24-483 isoform P23979-2 V150A): T1 sequence (P23979 24-483 isoform P23979-2 limits assumed) with V127A
Nature of the test: [^3H]granisetron saturation binding, V149A receptor.

In test [3] the target is T4, Y152A mutant mouse 5-HT3ASR (Mus musculus, UniProt P23979, Y153A).
T4 sequence (P23979 24-483 isoform P23979-2 Y153A): T1 sequence (P23979 24-483 isoform P23979-2 limits assumed) with Y130A
Nature of the test: [^3H]granisetron saturation binding, Y152A receptor. The conditions noted are these: ± SE.

For the compound `CN1C2CCCC1CC(NC(=O)c1nn(C)c3ccccc13)C2` (stereo not drawn) [[^3H]granisetron], the Bmax at wildtype mouse 5-HT3ASR (absence of protease inhibitor, ± SE) was 3.2 ± 0.13 pmol/mg protein and 3.2 ± .13 pmol/mg protein; in test [1], 0.56 ± .09 pmol/mg protein; in test [3] it was 0.59 ± .10 pmol/mg protein. Further, the “Bmax (+ protease inhibitor)” value on wildtype mouse 5-HT3ASR (membranes prepared in the presence of protease inhibitor cocktail) is 3.1 ± 0.11 pmoles/mg protein. Besides, the “Hill coefficient (n)” value on wildtype mouse 5-HT3ASR (± SE) was determined as 1 ± 0.12. Further, in test [2], the “binding of [^3H]granisetron” value is recorded as “No detectable binding”.
